Measurements reported in patent US8952024B2, “Herbicidal pyrimidone derivatives” (E I du Pont de Nemours and Company, priority 2009, dated 2015).
Where two headings read alike, the source gives them in different places.

Columns and labels:
Type in all cases: in vivo
[1] = tested on: chickweed (Stellaria media); experiment: Test B postemergence plant response; conditions: Stellaria media, post-emergence, 360 h, Postemergence
Procedure, shortened: (§1)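 Plants at the 1- to 4-leaf stage (2 to 18 cm tall), grown in pots of peat moss/vermiculite medium with wetting agent and starter nutrients, received postemergence applications of test chemicals. After 13 to 15 days in a greenhouse, injury was rated visually against untreated controls on a 0 (no effect) to 100 (complete control) scale.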

[2] = tested on: winter barley (Hordeum vulgare); experiment: Test B postemergence plant response; conditions: Hordeum vulgare, post-emergence, Postemergence, read-out: Plant response rating, Barley
Procedure, shortened: as §1

[3] = tested on: canarygrass (Phalaris minor); experiment: Test B postemergence plant response; conditions: Phalaris minor, post-emergence, 360 h, Postemergence
Procedure, shortened: as §1

[4] = tested on: windgrass (Apera spica-venti); experiment: Test B postemergence plant response; conditions: Apera spica-venti, post-emergence, 360 h, Postemergence
Procedure, shortened: as §1

[5] = tested on: barnyardgrass (Echinochloa crus-galli); experiment: Test B flooded paddy test; conditions: Echinochloa crus-galli, 360 h
Procedure, shortened: (§2)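 Post-flood paddy application: compounds are introduced into water 3 cm deep over the soil, reaching plants at the 2-leaf stage. The water level is maintained, and after 13–15 days under greenhouse conditions, response is judged by eye relative to controls, where 100 means complete control.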

[6] = tested on: rice (Oryza sativa); experiment: Test B flooded paddy test; conditions: Oryza sativa
Procedure, shortened: as §2

[7] = tested on: ducksalad (Heteranthera limosa); experiment: Test B flooded paddy test; conditions: Heteranthera limosa, 360 h
Procedure, shortened: as §2

[8] = tested on: umbrella sedge (Cyperus difformis); experiment: Test B flooded paddy test; conditions: Cyperus difformis, 360 h
Procedure, shortened: as §2

[9] = tested on: sunflower (common oilseed sunflower, Helianthus annuus); experiment: Test B pre-/postemergence plant response; conditions: Preemergence
Procedure, shortened: (§3)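 Visual ratings on a 0–100 scale (100 = complete control) were made versus untreated controls 13–15 days after treatment in a greenhouse. Compounds in surfactant-containing non-phytotoxic solvent were applied preemergence to seeds in loam–sand blend or postemergence to 1- to 4-leaf plants (2–18 cm).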

[10] = tested on: pigweed (Amaranthus retroflexus); experiment: Test B pre-/postemergence plant response; conditions: for pest or weed control at 16 g/ha: 16 g ai/ha; for pest or weed control at 16 g/ha / pest or weed control at 31 g/ha / pest or weed control at 62 g/ha: read-out: Plant response rating, Pigweed; for pest or weed control at 31 g/ha: 31 g ai/ha; for pest or weed control at 62 g/ha: 62 g ai/ha
Procedure, shortened: as §3

[11] = tested on: nightshade (eastern black nightshade, Solanum ptycanthum); experiment: Test B pre-/postemergence plant response; conditions: Preemergence
Procedure, shortened: as §3

[12] = tested on: wild oat (Avena fatua); experiment: Test B pre-/postemergence plant response; conditions: for pest or weed control at 16 g/ha: 16 g ai/ha; for pest or weed control at 62 g/ha: 62 g ai/ha
Procedure, shortened: as §3

[13] = 125 g ai/ha, visual rating after 13 to 15 days, scale 0 (no effect) to 100 (complete control)
[14] = 31 g ai/ha, scale 0 to 100 (0 no effect, 100 complete control)
[15] = 62 g ai/ha, scale 0 to 100, 0 no effect, 100 complete control
[16] = Amaranthus retroflexus, pre-emergence, Preemergence, scale 0 to 100 (0 no effect, 100 complete control)
[17] = Preemergence, 125 g ai/ha, 0 to 100 scale
[18] = Avena fatua, pre-emergence, Preemergence, scale 0 to 100 (0 no effect, 100 complete control), read-out: Plant response rating, Oat, Wild

Structure (SMILES): O=C1CCCC(O)=C1C(=O)c1cnc(-c2ccccc2)n(-c2ccccc2)c1=O [Compound 2, 5-[(2-hydroxy-6-oxo-1-cyclohexen-1-yl)carbonyl]-2,3-diphenyl-4(3H)-pyrimidinone]
- pest or weed control at 16 g/ha ([1]; 16 g ai/ha, 0 to 100 scale, read-out: Plant response rating, Chickweed): 70%
- pest or weed control at 31 g/ha ([1]; 31 g ai/ha, scale 0 to 100 (0 no effect, 100 complete control), read-out: Plant response rating, Chickweed): 75%
- pest or weed control at 62 g/ha ([1]; 62 g ai/ha, scale 0 (no effect) to 100 (complete control), 13 to 15 days, read-out: Plant response rating, Chickweed): 90%
- pest or weed control at 125 g/ha [1, 13]: 95%
- plant injury at 16 g/ha ([2]; 16 g ai/ha, 0 to 100 scale): 0%
- plant injury at 31 g/ha [2, 14]: 10%
- plant injury at 62 g/ha ([2]; 62 g ai/ha, scale 0 (no effect) to 100 (complete control), 13 to 15 days): 20%
- plant injury at 125 g/ha ([2]; 125 g ai/ha, scale 0 to 100 (0 no effect, 100 complete control), 13 to 15 days): 30%
- pest or weed control at 16 g/ha ([3]; 16 g ai/ha, 0 to 100 scale, read-out: Plant response rating, Canarygrass): 20%
- pest or weed control at 31 g/ha ([3]; 31 g ai/ha, scale 0 to 100 (0 no effect, 100 complete control), read-out: Plant response rating, Canarygrass): 40%
- pest or weed control at 62 g/ha ([3]; 62 g ai/ha, scale 0 (no effect) to 100 (complete control), 13 to 15 days, read-out: Plant response rating, Canarygrass): 50%
- pest or weed control at 125 g/ha [3, 13]: 80%
- pest or weed control at 16 g/ha ([4]; 16 g ai/ha, 0 to 100 scale, read-out: Plant response rating, Windgrass): 10%
- pest or weed control at 31 g/ha ([4]; 31 g ai/ha, scale 0 to 100 (0 no effect, 100 complete control), read-out: Plant response rating, Windgrass): 10%
- pest or weed control at 62 g/ha ([4]; 62 g ai/ha, scale 0 (no effect) to 100 (complete control), 13 to 15 days, read-out: Plant response rating, Windgrass): 15%
- pest or weed control at 125 g/ha [4, 13]: 50%
- pest or weed control at 250 g/ha ([5]; 250 g ai/ha, flooded paddy test, visual rating on 0 to 100 scale (0 no effect, 100 complete control) after 13 to 15 days, read-out: Plant response rating, Flood, Barnyardgrass): 0%
- pest or weed control at 31 g/ha ([5]; Flood (flooded paddy test), 31 g ai/ha, scale of 0 to 100 where 0 is no effect and 100 is complete control, 13 to 15 days, read-out: Plant response rating, Barnyardgrass): 0%
- pest or weed control at 62 g/ha ([5]; Flood (flooded paddy test), 62 g ai/ha, scale 0 to 100, 0 is no effect, 100 is complete control, 13 to 15 days, read-out: Plant response rating, Barnyardgrass): 0%
- pest or weed control at 125 g/ha ([5]; Flood (flooded paddy test), 125 g ai/ha, scale 0 to 100, 0 is no effect, 100 is complete control, 13 to 15 days, read-out: Plant response rating, Barnyardgrass): 0%
- plant injury at 250 g/ha ([6]; 250 g ai/ha, flooded paddy test, visual rating on 0 to 100 scale (0 no effect, 100 complete control) after 13 to 15 days, read-out: Plant response rating, Flood, Rice): 8%
- plant injury at 31 g/ha ([6]; Flood (flooded paddy test), 31 g ai/ha, scale of 0 to 100 where 0 is no effect and 100 is complete control, 13 to 15 days, read-out: Plant response rating, Rice): 0%
- plant injury at 62 g/ha ([6]; Flood (flooded paddy test), 62 g ai/ha, scale 0 to 100, 0 is no effect, 100 is complete control, 13 to 15 days, read-out: Plant response rating, Rice): 0%
- plant injury at 125 g/ha ([6]; Flood (flooded paddy test), 125 g ai/ha, scale 0 to 100, 0 is no effect, 100 is complete control, 13 to 15 days, read-out: Plant response rating, Rice): 0%
- pest or weed control at 250 g/ha ([7]; 250 g ai/ha, flooded paddy test, visual rating on 0 to 100 scale (0 no effect, 100 complete control) after 13 to 15 days, read-out: Plant response rating, Flood, Ducksalad): 78%
- pest or weed control at 31 g/ha ([7]; Flood (flooded paddy test), 31 g ai/ha, scale of 0 to 100 where 0 is no effect and 100 is complete control, 13 to 15 days, read-out: Plant response rating, Ducksalad): 15%
- pest or weed control at 62 g/ha ([7]; Flood (flooded paddy test), 62 g ai/ha, scale 0 to 100, 0 is no effect, 100 is complete control, 13 to 15 days, read-out: Plant response rating, Ducksalad): 40%
- pest or weed control at 125 g/ha ([7]; Flood (flooded paddy test), 125 g ai/ha, scale 0 to 100, 0 is no effect, 100 is complete control, 13 to 15 days, read-out: Plant response rating, Ducksalad): 58%
- pest or weed control at 250 g/ha ([8]; 250 g ai/ha, flooded paddy test, visual rating on 0 to 100 scale (0 no effect, 100 complete control) after 13 to 15 days, read-out: Plant response rating, Flood, Sedge, Umbrella): 75%
- pest or weed control at 31 g/ha ([8]; Flood (flooded paddy test), 31 g ai/ha, scale of 0 to 100 where 0 is no effect and 100 is complete control, 13 to 15 days, read-out: Plant response rating, Sedge, Umbrella): 0%
- pest or weed control at 62 g/ha ([8]; Flood (flooded paddy test), 62 g ai/ha, scale 0 to 100, 0 is no effect, 100 is complete control, 13 to 15 days, read-out: Plant response rating, Sedge, Umbrella): 0%
- pest or weed control at 125 g/ha ([8]; Flood (flooded paddy test), 125 g ai/ha, scale 0 to 100, 0 is no effect, 100 is complete control, 13 to 15 days, read-out: Plant response rating, Sedge, Umbrella): 45%
- Plant response rating, Sunflower [9, 14]: 50
- Plant response rating, Sunflower [9, 15]: 70
- Sunflower plant response rating ([9]; 125 g ai/ha, 0 to 100 scale): 90
- pest or weed control at 16 g/ha ([10]; Amaranthus retroflexus, post-emergence, Postemergence, 0 to 100 scale): 70%
- pest or weed control at 31 g/ha ([10]; Amaranthus retroflexus, post-emergence, Postemergence, scale 0 to 100 (0 no effect, 100 complete control)): 85%
- pest or weed control at 62 g/ha ([10]; Amaranthus retroflexus, post-emergence, Postemergence, scale 0 (no effect) to 100 (complete control), 13 to 15 days): 90%
- pest or weed control at 125 g/ha ([10]; Amaranthus retroflexus, post-emergence, Postemergence, 125 g ai/ha, visual rating after 13 to 15 days, scale 0 (no effect) to 100 (complete control)): 95%
- pest or weed control at 16 g/ha [10, 16]: 98%
- pest or weed control at 31 g/ha [10, 16]: 100%
- pest or weed control at 62 g/ha [10, 16]: 100%
- Pigweed plant response rating [10, 17]: 100
- Plant response rating, Nightshade ([11]; 16 g ai/ha, scale 0 to 100, 0 no effect, 100 complete control): 55
- Plant response rating, Nightshade [11, 14]: 98
- Plant response rating, Nightshade [11, 15]: 100
- Nightshade plant response rating ([11]; 125 g ai/ha, 0 to 100 scale): 100
- pest or weed control at 16 g/ha ([12]; Avena fatua, post-emergence, Postemergence, 0 to 100 scale, read-out: Plant response rating, Oat, Wild): 5%
- pest or weed control at 31 g/ha ([12]; Avena fatua, post-emergence, Postemergence, 31 g ai/ha, scale 0 to 100 (0 no effect, 100 complete control), read-out: Plant response rating, Oat, Wild): 30%
- pest or weed control at 62 g/ha ([12]; Avena fatua, post-emergence, Postemergence, scale 0 (no effect) to 100 (complete control), 13 to 15 days, read-out: Plant response rating, Oat, Wild): 45%
- pest or weed control at 125 g/ha ([12]; Avena fatua, post-emergence, Postemergence, 125 g ai/ha, visual rating after 13 to 15 days, scale 0 (no effect) to 100 (complete control)): 55%
- pest or weed control at 16 g/ha [12, 18]: 0%
- pest or weed control at 62 g/ha [12, 18]: 5%
- Oat, Wild plant response rating [12, 17]: 50
